Measurements taken from patent US10174016B2 (BAYER AKTIENGESELLSCHAFT, priority 2014, dated 2019).
pIC50: −log10 of the molar value. Read-outs that look alike come from different tables or passages of the source. One block for each molecule: values may come before it.

What was measured:
[1] = target: human P2X3 receptor (Homo sapiens (Human), UniProt P56373); assay: Intracellular calcium measurement (FLIPR, Fluo-4) of antagonist activity at human P2X3 receptors; assay type: cell-based; details: read-out: hP2X3 IC50
Method in brief: (§1)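 Antagonism quantified from peak calcium fluorescence (Fluo-4, FLIPR, 90 sec read) evoked by EC80 α,β-Me-ATP, after a 30 min, 37° C. compound pretreatment in 1% DMSO. Human P2X3- or P2X2/3-expressing cells used; triplicate means fitted for IC50, percent maximal inhibition and Hill coefficient.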

[2] = target: human P2X2/3 receptor (Homo sapiens (Human), UniProt P56373+Q9UBL9); assay: Intracellular calcium measurement (FLIPR, Fluo-4) of antagonist activity at human P2X2/3 receptors; assay type: cell-based; details: human P2X2/3, FLIPR calcium assay, agonist α,β-Me-ATP; read-out: hP2X2/3 IC50
Method in brief: as §1

[3] = human P2X3, FLIPR calcium assay, agonist α,β-Me-ATP

Chain of human P2X2/3 receptor (P56373 whole entry): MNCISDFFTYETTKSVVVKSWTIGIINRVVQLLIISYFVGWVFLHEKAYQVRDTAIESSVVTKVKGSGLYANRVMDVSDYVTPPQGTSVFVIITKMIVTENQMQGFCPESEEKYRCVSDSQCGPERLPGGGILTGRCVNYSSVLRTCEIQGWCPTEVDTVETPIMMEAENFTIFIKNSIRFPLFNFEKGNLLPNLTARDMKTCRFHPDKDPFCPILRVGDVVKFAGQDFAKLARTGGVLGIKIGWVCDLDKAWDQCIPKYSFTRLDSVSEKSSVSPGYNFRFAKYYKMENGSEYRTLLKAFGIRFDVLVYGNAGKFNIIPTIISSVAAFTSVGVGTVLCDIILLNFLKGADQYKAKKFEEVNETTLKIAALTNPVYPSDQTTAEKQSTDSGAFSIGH
Chain of human P2X2/3 receptor (Q9UBL9 whole entry): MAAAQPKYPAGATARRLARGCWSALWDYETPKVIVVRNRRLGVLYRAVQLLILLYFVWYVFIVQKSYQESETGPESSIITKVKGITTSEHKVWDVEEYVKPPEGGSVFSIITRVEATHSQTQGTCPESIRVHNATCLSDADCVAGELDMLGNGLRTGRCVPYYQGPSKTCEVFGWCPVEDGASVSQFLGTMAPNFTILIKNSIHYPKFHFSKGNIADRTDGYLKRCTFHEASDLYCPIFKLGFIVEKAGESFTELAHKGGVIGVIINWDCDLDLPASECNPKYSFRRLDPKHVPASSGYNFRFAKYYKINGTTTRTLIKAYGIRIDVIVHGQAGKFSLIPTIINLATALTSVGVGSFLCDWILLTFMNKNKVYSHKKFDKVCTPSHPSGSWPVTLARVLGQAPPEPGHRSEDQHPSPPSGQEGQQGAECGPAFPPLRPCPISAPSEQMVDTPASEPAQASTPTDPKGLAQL
Chain of human P2X3 receptor (P56373 whole entry): as the sequence (P56373 whole entry) above

SMILES: Cc1ccc([C@@H](C)NC(=O)c2cc(OC3CCN(CC(F)(F)F)CC3)cc(-c3ncc(C)s3)c2)nn1 [Example 311, N-[(1R)-1-(6-methylpyridazin-3-yl)ethyl]-3-(5-methyl-1,3-thiazol-2-yl)-5-{[1-(2,2,2-trifluoroethyl)piperidin-4-yl]oxy}benzamide]
pIC50 [1, 3]: 8.10
pIC50 [2]: 7.46

SMILES: Cc1cnc([C@@H](C)NC(=O)c2cc(OC3CCN(CC(F)(F)F)CC3)cc(-c3ncc(C)s3)c2)cn1 [Example 313, N-[(1R)-1-(5-methylpyrazin-2-yl)ethyl]-3-(5-methyl-1,3-thiazol-2-yl)-5-{[1-(2,2,2-trifluoroethyl)piperidin-4-yl]oxy}benzamide]
pIC50 [1, 3]: 7.96
pIC50 [2]: 6.70

SMILES: Cc1ccc(CNC(=O)c2cc(OC3CCN(CC(F)(F)F)CC3)cc(-c3ncc(C)s3)c2)nn1 [Example 314, N-[(6-methylpyridazin-3-yl)methyl]-3-(5-methyl-1,3-thiazol-2-yl)-5-{[1-(2,2,2-trifluoroethyl)piperidin-4-yl]oxy}benzamide]
pIC50 [1]: 8.10
pIC50 [2]: 6.72

SMILES: Cc1ccc([C@@H](C)NC(=O)c2cc(OC[C@H]3CCOC3)cc(-c3ncc(Cl)s3)c2)nn1 [Example 316, 3-(5-chloro-1,3-thiazol-2-yl)-N-[(1R)-1-(6-methylpyridazin-3-yl)ethyl]-5-[(3S)-tetrahydrofuran-3-ylmethoxy]benzamide]
pIC50 [1]: 7.68
pIC50 [2]: 6.60

SMILES: Cc1ccc([C@@H](C)NC(=O)c2cc(O[C@H]3CCOC3)cc(-c3ncc(Cl)s3)c2)nn1 [Example 322, 3-(5-chloro-1,3-thiazol-2-yl)-N-[(1R)-1-(6-methylpyridazin-3-yl)ethyl]-5-[(3S)-tetrahydrofuran-3-yloxy]benzamide]
pIC50 [1, 3]: 7.31
pIC50 [2]: 6.30

The remaining lines, values ahead:

pIC50 [1, 3]: 8.05
pIC50 [2]: 7.08
SMILES: Cc1cnc(-c2cc(OC3CCN(CC(F)(F)F)CC3)cc(C(=O)N[C@H](C)c3ccc(C(F)(F)F)nn3)c2)s1 [Example 312, 3-(5-methyl-1,3-thiazol-2-yl)-5-{[1-(2,2,2-trifluoroethyl)piperidin-4-yl]oxy}-N-{(1R)-1-[6-(trifluoromethyl)pyridazin-3-yl]ethyl}benzamide]

pIC50 [1, 3]: 8.10
pIC50 [2]: 6.80
SMILES: Cc1ncc([C@@H](C)NC(=O)c2cc(OC3CCN(CC(F)(F)F)CC3)cc(-c3ncc(C)s3)c2)cn1 [Example 315, N-[(1R)-1-(2-methylpyrimidin-5-yl)ethyl]-3-(5-methyl-1,3-thiazol-2-yl)-5-{[1-(2,2,2-trifluoroethyl)piperidin-4-yl]oxy}benzamide]

pIC50 [1, 3]: 7.35
pIC50 [2]: 6.02
SMILES: Cc1ccc([C@@H](C)NC(=O)c2cc(O[C@@H]3CCOC3)cc(-c3ncc(Cl)s3)c2)nn1 [Example 317, 3-(5-chloro-1,3-thiazol-2-yl)-N-[(1R)-1-(6-methylpyridazin-3-yl)ethyl]-5-[(3R)-tetrahydrofuran-3-yloxy]benzamide]

pIC50 [1, 3]: 7.49
pIC50 [2]: 6.32
SMILES: C[C@@H](NC(=O)c1cc(O[C@@H]2CCOC2)cc(-c2ncc(Cl)s2)c1)c1ccc(C(F)(F)F)nn1 [Example 318, 3-(5-chloro-1,3-thiazol-2-yl)-5-[(3R)-tetrahydrofuran-3-yloxy]-N-{(1R)-1-[6-(trifluoromethyl)pyridazin-3-yl]ethyl}benzamide]

pIC50 [1, 3]: 7.48
pIC50 [2]: 6.20
SMILES: C[C@@H](NC(=O)c1cc(O[C@H]2CCOC2)cc(-c2ncc(Cl)s2)c1)c1ccc(C(F)(F)F)nn1 [Example 320, 3-(5-chloro-1,3-thiazol-2-yl)-5-[(3S)-tetrahydrofuran-3-yloxy]-N-{(1R)-1-[6-(trifluoromethyl)pyridazin-3-yl]ethyl}benzamide]

pIC50 [1, 3]: 7.60
pIC50 [2]: 6.39
SMILES: C[C@@H](NC(=O)c1cc(OC[C@H]2CCOC2)cc(-c2ncc(Cl)s2)c1)c1cnc(C(F)(F)F)nc1 [Example 323, 3-(5-chloro-1,3-thiazol-2-yl)-5-[(3S)-tetrahydrofuran-3-ylmethoxy]-N-{(1R)-1-[2-(trifluoromethyl)pyrimidin-5-yl]ethyl}benzamide]
